Peptide text beside a SMILES is read from it. * marks the point of attachment. Cbz = O=C(OCc1ccccc1)*
Columns and labels:
[1] = tested on: NF-κB DNA binding activity in MDA-MB-231 cells; experiment: EMSA of NF-κB DNA binding activity in MDA-MB-231 cells; details: parthenolide 1, 2 and 5 μM for 3 h
Description: (§2) Electrophoretic Mobility Shift Assays (EMSAs). […] Cells were collected by trypsinization, washed in phosphate-buffered saline and resuspended in 125 μl of 2 μgs/ml RNase and 300 μl of propidium iodide containing buffer (50 μg/ml propidium iodide, 1 mg/ml sodium citrate, 0.03% NP40). The amount of propidium iodide incorporated was determined by FAScan analysis and the cell cycle distribution was determined using ModFit computer Software. Cell cycle distribution analysis was performed in a single blinded manner. Only diploid cells were considered while calculating the percentage of cells at each phase of cell cycle. • H. Statistical Analysis.

breast cancer = details: cited from earlier work
[2] = tested on: NF-κB DNA binding in HUVECs; experiment: electromobility gel shift assay of NF-κB DNA binding in HUVECs; details: three hours, bFGF 50 ng/mL, VEGF 100 ng/mL, rhuMAb VEGF 10 mg/mL
Description: HUVECs were plated on 100 mm plates and harvested in an exponential growth phase. […] The mixture was then electrophoresed. Specific NF-κB binding to DNA was identified by the presence of a signal seen at autoradiography. The protein-DNA complex was slower to migrate whereas unbound DNA and protein migrated off the gel.

HBL100 cells [3] = experiment: MTS cell survival assay, HBL100 cells; type: cell-based; details: Homo sapiens, HBL-100, HBL100, 18 h, single agent, read-out: Half-maximal growth-inhibitory concentration (IC50)
IκBαSR6 cells = experiment: flow cytometry cell cycle distribution, IκBαSR6 cells; details: 5 nM paclitaxel, IκBαSR6, diploid cells only
Description: (§3) Apoptosis was measured by a histone-ELISA (Roche Diagnostics, Indianapolis, Ind.). […] Histone-DNA complexes in the supernatant were detected by ELISA. For the PARP cleavage assay, 5×10^5 cells were exposed to the indicated drugs for 24 h. […] Cells were collected by trypsinization, washed in phosphate-buffered saline and resuspended in 125 μl of 2 μgs/ml RNase and 300 μl of propidium iodide containing buffer (50 μg/ml propidium iodide, 1 mg/ml sodium citrate, 0.03% NP40). The amount of propidium iodide incorporated was determined by FAScan analysis and the cell cycle distribution was determined using ModFit computer Software. Cell cycle distribution analysis was performed in a single blinded manner. Only diploid cells were considered while calculating the percentage of cells at each phase of cell cycle. • H. Statistical Analysis. In synergy experiments, dose response curves for single agents were generated first.
(§4) Only diploid cells were considered while calculating the percentage of cells in different phases of the cell cycle.

p65−/− fibroblasts = experiment: cell cycle progression of p65−/− fibroblasts; details: for p65−/− G0/G1 / p65−/− S / p65−/− G2/M: 18 h
Description: as §2

IκBαSR10 cells = experiment: cell death ELISA (apoptosis), IκBαSR10 cells; details: 18 h of paclitaxel treatment, culture supernatants
Description: Apoptosis was measured by ELISA.
(§5) To avoid loss of hypodiploid or other damaged cells during processing, the assay was performed with cell culture supernatants.

LxSN11 cells [4] = experiment: cell death ELISA (apoptosis), LxSN11 cells; details: 18 h of paclitaxel treatment, culture supernatants
Description: Apoptosis was measured by ELISA.
as §5

[5] = tested on: PARP cleavage in HBL100 cells; experiment: PARP cleavage Western blot, HBL100 cells; type: cell-based; details: HBL100, 24 h, single agents: paclitaxel 1 nM and 5 nM, parthenolide 0.1 μM and 0.5 μM
Source text: (§1) The invention will be further described by reference to the following detailed examples wherein the following materials and methods were employed: • A. Breast Cancer Cell Lines. […] Electrophoretic Mobility Shift Assays (EMSAs). […] Antibodies for supershift assays were purchased from Santa Cruz Biotechnology (CA) or Upstate Biotechnology (NY). • D. Western Blotting. […] IκBα and Mn-SOD antibodies were purchased from Santa Cruz Biotechnology (CA) and Upstate Biotechnology, respectively. • E. Northern Blotting and RNase Protection. […] Twenty μgs of RNA were subjected to RNase protection using the hAPO-5 probe (PharMingen, San Diego, Calif.) as described by the manufacturers. • F. Drug Treatment, Cell Death Assays, Apoptosis Assay and PARP Cleavage. […] Apoptosis was measured by a histone-ELISA (Roche Diagnostics, Indianapolis, Ind.). […] Histone-DNA complexes in the supernatant were detected by ELISA. For the PARP cleavage assay, 5×10^5 cells were exposed to the indicated drugs for 24 h. […] Cells were collected by trypsinization, washed in phosphate-buffered saline and resuspended in 125 μl of 2 μgs/ml RNase and 300 μl of propidium iodide containing buffer (50 μg/ml propidium iodide, 1 mg/ml sodium citrate, 0.03% NP40). The amount of propidium iodide incorporated was determined by FAScan analysis and the cell cycle distribution was determined using ModFit computer Software. […]

wild type fibroblasts = experiment: cell cycle progression of wild type fibroblasts; details: for Wild type G0/G1 / Wild type G2/M / Wild type S: 18 h
Description: as §2

LxSN11 and IκBαSR cells = experiment: flow cytometry cell cycle analysis, all cell types (LxSN11 and IκBαSR clones of MDA-MB-231); details: 3 nM paclitaxel
Description: as §3, §4

MDA-MB-231 cells = experiment: MTS cell survival assay, MDA-MB-231 cells; type: cell-based
Source text: as §1

LxSN11 cells [6] = experiment: flow cytometry cell cycle distribution, LxSN11 cells; details: paclitaxel increased from 3 nM to 5 nM
Description: as §3, §4

HBL100 cells [7] = experiment: cell cycle distribution analysis, HBL100 cells; type: cell-based; details: HBL100 (data not shown)
Source text: as §1

## O=C(O[C@@H]1Cc2c(O)cc(O)cc2O[C@@H]1c1cc(O)c(O)c(O)c1)c1cc(O)c(O)c(O)c1 [epigallocatechin gallate]
[1]
  ability to inhibit NF-κB DNA binding activity: Only parthenolide, MG132 and Bay 11-7085 inhibited

## rhuMAb VEGF: anti-angiogenic agent provided by Genentech, used in the electromobility gel shift assay
Breast cancer
  patients with tumor regression: 20%
[2]
  effect on NF-κB DNA binding: did not alter NF-κB DNA binding

## CC(C)(C)c1ccc(S(=O)(=O)/C=C/C#N)cc1 [Bay 11-7085]
[1]
  ability to inhibit NF-κB DNA binding activity: inhibited

## CC(C)C[C@@H](C=O)NC(=O)[C@H](CC(C)C)NC(=O)[C@H](CC(C)C)NC(=O)OCc1ccccc1 [MG132] (Cbz-Leu-Leu-Leu-aldehyde)
[1]
  ability to inhibit NF-κB DNA binding activity: inhibited

## CC(=O)CCCCn1c(=O)c2c(ncn2C)n(C)c1=O [pentoxyphylline]
[1]
  ability to inhibit NF-κB DNA binding activity: Only parthenolide, MG132 and Bay 11-7085 inhibited

## CC(=O)O[C@H]1C(=O)[C@@]2(C)[C@H]([C@H](OC(=O)c3ccccc3)[C@]3(O)C[C@H](OC(=O)[C@H](O)[C@@H](NC(=O)c4ccccc4)c4ccccc4)C(C)=C1C3(C)C)[C@]1(OC(C)=O)CO[C@@H]1C[C@@H]2O [paclitaxel]
HBL100 cells [3]
  IC50: 10 nM
IκBαSR6 cells
  percentage of cells at G2/M: 70.37±14.9%
p65−/− fibroblasts; p65−/− fibroblasts
  effect on cell cycle distribution: had no effect
p65−/− fibroblasts; paclitaxel 1 nM
  p65−/− G0/G1: 47 ± 2
  p65−/− S: 53 ± 1
p65−/− fibroblasts; paclitaxel 3 nM
  p65−/− G0/G1: 39 ± 6
  p65−/− G2/M: 1
  p65−/− S: 61 ± 7
p65−/− fibroblasts; paclitaxel 5 nM
  p65−/− G0/G1: 47 ± 2
  p65−/− G2/M: 14
  p65−/− S: 46 ± 6
p65−/− fibroblasts; paclitaxel 10 nM
  p65−/− G0/G1: 47 ± 2
  p65−/− G2/M: 6 ± 4
  p65−/− S: 48 ± 6
IκBαSR10 cells
  apoptosis by cell death ELISA: substantial increase in apoptotic death
LxSN11 cells [4]
  apoptosis by cell death ELISA: only a marginal increase in apoptosis
[5]
  PARP cleavage product: No PARP cleavage product was observed
Wild type fibroblasts; paclitaxel 1 nM
  Wild type G0/G1: 68 ± 4
  Wild type G2/M: 17 ± 8
  Wild type S: 20 ± 4
Wild type fibroblasts; paclitaxel 3 nM
  Wild type G0/G1: 70 ± 3
  Wild type G2/M: 14 ± 5
  Wild type S: 16 ± 1
Wild type fibroblasts; paclitaxel 5 nM
  Wild type G0/G1: 71 ± 3
  Wild type G2/M: 17 ± 6
  Wild type S: 16 ± 4
Wild type fibroblasts; paclitaxel 10 nM
  Wild type G0/G1: 73 ± 2
  Wild type G2/M: 16 ± 6
  Wild type S: 15 ± 2
Wild type fibroblasts; wild type fibroblasts
  effect on cell cycle distribution: had no effect
LxSN11 and IκBαSR cells
  hypodiploid cells: approximately 30%
MDA-MB-231 cells; Homo sapiens, MDA-MB-231, 18 h, MTS, single agent
  IC50: > 30 nM
MDA-MB-231 cells; MDA-MB-231, 30 nM or higher concentrations of paclitaxel
  cells killed: 30%
LxSN11 cells [6]
  cell cycle distribution pattern: did not alter the cell cycle distribution pattern
HBL100 cells [7]
  G2/M arrest: arrested at G2/M

## CC(=O)N[C@@H](CS)C(=O)O [N-acetyl cysteine]
[1]
  ability to inhibit NF-κB DNA binding activity: Only parthenolide, MG132 and Bay 11-7085 inhibited

## VEGF
[2]
  effect on NF-κB DNA binding: did not alter baseline NF-κB DNA binding

## COc1cc(/C=C/C(=O)CC(=O)/C=C/c2ccc(O)c(OC)c2)ccc1O [Curcumin]
[1]
  ability to inhibit NF-κB DNA binding activity: Only parthenolide, MG132 and Bay 11-7085 inhibited

## bFGF: basic Fibroblast Growth Factor (R & D Systems) added to stimulate HUVECs
[2]
  effect on NF-κB DNA binding: induced greater DNA binding than VEGF

Reference: patent US6890946B2, “Use of parthenolide to inhibit cancer” (Indiana University Research and Technology Corporation, priority 1999, dated 2005)
